Several values for one entry are separate records, joined by “and”; a condition that tells them apart may be missing. Equal values may be shown once.
Assays:
human ETB receptors = biological target: T1, human ETB receptors (Homo sapiens, UniProt P24530); experiment: In vitro antagonistic effect on human ETB receptors (Ca2+ fluorescence, transfected CHO cells); format: cell-based; conditions: 0.3 nM endothelin-1
T1 construct: host or cells: CHO cells
T1 sequence (P24530 27-442): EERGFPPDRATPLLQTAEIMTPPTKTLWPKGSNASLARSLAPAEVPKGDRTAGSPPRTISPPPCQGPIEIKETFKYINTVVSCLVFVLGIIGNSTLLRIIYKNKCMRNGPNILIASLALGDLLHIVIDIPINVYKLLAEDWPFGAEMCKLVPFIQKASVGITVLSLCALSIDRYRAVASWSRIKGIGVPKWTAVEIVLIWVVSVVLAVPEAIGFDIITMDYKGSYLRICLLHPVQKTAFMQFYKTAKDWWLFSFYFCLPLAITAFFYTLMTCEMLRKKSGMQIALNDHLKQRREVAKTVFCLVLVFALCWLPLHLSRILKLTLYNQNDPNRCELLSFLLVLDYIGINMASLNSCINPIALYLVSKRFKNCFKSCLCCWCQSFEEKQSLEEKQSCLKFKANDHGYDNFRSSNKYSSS
Protocol: The antagonist activities of the compounds on human ETB receptors expressed in transfected CHO cells were assessed by measuring the effects of the compounds on changes in cytoplasmic Ca^2+ ion signaling induced by an agonist of human ETB receptor using a fluorescence assay. The functional activity of the ETB receptor antagonistic effect was tested at Eurofins-Cerep SA according to current standard operating procedures.
• 1. Cells were suspended in DMEM buffer (Invitrogen) and then distributed at a density of 3×10^4 cells/well in 384 plates (100 μL/well). • 2. HBSS buffer (Invitrogen) supplemented with 20 mM Hepes (Invitrogen) (pH 7.4) was mixed with the fluorescent probe (Fluo4 Direct, Invitrogen) and added to each well. Equilibrated with the cells for 60 minutes at 37° C. and then for 15 minutes at 22° C. • 3. The assay plate was placed in a microplate reader (CellLux, PerkinElmer). DMSO solution of the test compound and the positive control or HBSS buffer in appropriate concentration was added. […] Then the change in fluorescence intensity was measured. The fluorescence intensity is in proportion to the Ca^2+ ion concentration of the free cytosol. • 4. […] The standard positive control was BQ-788 and several concentrations were tested in each experiment and the data was analyzed using Prism to produce a concentration-response curve to calculate the IC50 values of the compounds. […]

[1] = Hygroscopicity study of Crystal Form A; format: physicochemical; conditions: 25° C., 24 hours
From the text: Categorization in the hygroscopicity evaluation is as follows:
• 1) Two dry stoppered glass weighing bottles (50 mm external diameter, 30 mm high) were taken and kept in a desiccator with a saturated solution of ammonium chloride in the lower part. The weighing bottles were left open.

[2] = Pharmacokinetic evaluation in Beagle dogs; format: in vivo; conditions: for Bioavailability F: 3 mg/kg
Protocol: Male Beagle dogs were used as the test animals in this study. The LC/MS/MS method was applied to quantify the plasma drug concentrations in Beagle dogs at different time points after administration of the test compound by intravenous injection or oral gavage to evaluate the pharmacokinetic profile of the test compound in Beagle dogs.
Beagle dogs (Male, 6-15 kg, above 6 months, Beijing Marshall Biotechnology Co.)
A clear solution of the test compound was administered to the Beagle dogs by intravenous injection (overnight fasting) or oral gavage (overnight fasting). At 0 h (before administration by intravenous injection) and at 0.0833, 0.25, 0.5, 1, 2, 4, 6, 8 and 24 h after administration by intravenous injection, about 500 μL of blood was collected from peripheral blood vessels into anticoagulation tubes supplemented with EDTA-K2 (Jiangsu Kangjian Medical Supplies Co., Ltd.). At 0 hours (before administration by oral gavage) and 0.25, 0.5, 1, 2, 4, 6, 8 and 24 hours after administration by oral gavage, about 500 μL of blood was collected from peripheral blood vessels into anticoagulation tubes supplemented with EDTA-K2. The mixture in the anticoagulation tube was vortexed thoroughly at 4° C. and the plasma was then centrifuged at 13,000 rpm for 10 minutes to obtain the plasma. Blood concentrations were determined by LC/MS/MS and the relevant pharmacokinetic parameters were calculated using WinNonlin™ Version 6.3 (Pharsight, Mountain View, CA) pharmacokinetics software with a non-compartmental model linear-log trapezoidal method.

Row | Compound | IC50 (human ETB receptors) | Hygroscopicity categorization [1] | Moisture-absorption weight gain, Mean (%) ([1]; mean of two samples, desiccator with saturated ammonium chloride solution) | Weight gain percentage (%) ([1]; single sample, desiccator with saturated ammonium chloride solution) | Area under the drug concentration-time curve ([2]; intravenous injection 1 mg/kg) | Area under the drug concentration-time curve ([2]; oral 3 mg/kg) | Peak concentration ([2]; oral 3 mg/kg) | Peak time ([2]; oral 3 mg/kg) | Bioavailability F ([2]; oral 3 mg/kg) | Bioavailability F ([2]; oral 3 mg/kg, listed as compound of formula (I))
1 | COCCNS(=O)(=O)Nc1ncnc(OCCOc2ncc(Br)cn2)c1-c1ccc2c(c1)OCO2 | 32 µM | non- or almost non-hygroscopic | 0.075% | 0.11% and 0.04% |  |  |  |  |  | 
2 | COCCNS(=O)(=O)Nc1ncnc(OCCOc2ncc(Br)cn2)c1-c1ccc2c(c1)OCO2 [Compound of formula (I)] |  |  |  |  | 7.56 µM·h | 33.40 µM·h | 12.75 µM | 0.38 h | 147% | > 50%

From patent US12297192B2, “Crystal form of pyrimidine sulfonamide compound and preparation method therefor” (WUXI BIOCITY BIOPHARMACEUTICS CO., LTD., priority 2019, dated 2025)
